We go through 2 compounds from patent publication EP0540969B1, “Derivatives of structurally modified VIP and pharmaceutical compositions containing them” (YEDA RESEARCH AND DEVELOPMENT CO. LTD., priority 1991, dated 1998).

For one data set, the system named is castrated rats. Briefly: Biological tests for penile reflexes (latency and number of E2 and cups) after transdermal application. The class given is in vivo. As to conditions: ointment with Sefsol 318 carrier; for Number of E2: during the test period (Fig. 1C); for Number of Cups: during the test period (Fig. 1D). How it is done:
The following ointment compositions were prepared and tested for transdermal application of lipophilic conjugated modified VIP derivatives in accordance with the present invention. Similar conjugates of unmodified VIP derivatives were tested for comparison. • 1. Ointment containing glycerine as a carrier: The ointment was prepared as follows: 2 g glycerine + 10 mg stearoyl-VIP + 7 drops of DMSO (dimethylsulfoxide). Each rat received 30-50 µg of stearoyl-VIP in about 10 µl ointment. (GLY in Figure 1). • 2. Ointment containing a lubricant as a carrier: The ointment was prepared as above, only glycerine was replaced by lubricant (K-Y Lubricating Jelly, Johnson & Johnson, containing propylene glycol and glycerine), 7 drops of DMSO equals about 130 µl. (LUB in Figure 1). • 3. Ointment containing a lubricant and nitroglycerine as a carrier: Prepared as in (2) above with 1.7 ml nitroglycerine (1 mg/ml), (LUB-NTG in Figure 1). • 4. Ointment containing Sefsol 318™ (12) as a carrier: The ointment composition was: 31.2 µl 10% Sefsol 318™ (glyceryl monocaprylate), 0.24 mg stearoyl-VIP in 31.2 µl DMSO (1-2µl per animal) (SEFS in Figure 1) or 0.24 mg stearoyl -Nle^17-VIP in 31.2µl DMSO (SEFS in Fig. 1).
The biological tests involved measurements of penile reflexes in castrated rats following transdermal application of modified and native VIP conjugates. […] In a further set of experiments the effects of stearoyl-VIP compounded with Sefsol 318™ were compared with those of stearoyl -Nle^17-VIP compounded with Sefsol 318™.
Rats with reduced sexual potential due to castration were employed. Male rats (250-300 g, about three month old) were kept in a 12-hours light, 12-hours dark cycle. Experiments were always conducted within the dark period, 2-6 hours after the onset of darkness. Male rats were castrated and given partial testosterone replacement (4 µg/100 g body weight) in the form of daily injection for 14-21 consecutive days (the duration of the experiment). Experiments were conducted one week following surgery.
A procedure was utilized that employed the technique that measures sexual reflexes in the penis, which enables direct evaluation of penile erection following transdermal administration of the drug. Successful reproduction depends, in large part, upon the precise execution of temporally organized, functionally related behavioural units. In these experiments, we concentrated on the final stages of the erection process (reddening of the penis accompanied by its distension and extension leading to complete erection) and monitored the latency time to the first E2 and first cup (13).
For testing, each animal was restrained in a supine position with the anterior portion of its body enclosed in a loosely fitting cylinder (7 cm diam). After a belt was secured around the torso, the glans penis was extruded from its sheath and gently held perpendicular to the abdomen by a thin wooden applicator positioned at the posterior of the penis. The legs of the male were held by the observer and this position was maintained throughout the test period. The duration of the session was 45 minutes. The latencies and numbers of E2 and cups were recorded and plotted.
An E2 is defined as a complete erection which can be followed by cup in which the penile tip is turned into a cup-like structure, whereby the glands flare out such that the penis is wider in its distal portion than its base. This final stage requires E2 and is probably a pre-requisite for ejaculation (13). Using all the parameters one can obtain a reliable measure of the sexual activity of the tested rat.
Six to ten animals were tested in this paradigm for each variable. Control animals received ointment compositions without St-VIP or St-Nle^17-VIP.

Data set [1] can be described thus: Stability compared with the unmodified conjugate. The following applies: compared with stearoyl-VIP in which the amino acid sequence was not altered. The class given is physicochemical.
In data set [2] the test system is rat. Put plainly: Repeated dose toxicity studies, daily topical application. As to conditions: daily topical application (to the sex organ), dose of 3.5 mg/animal. The class given is in vivo. As to the method: (§1) To assess the degree of toxicity and possible side effects of stearoyl-Nle^17-VIP, two types of studies were performed: 1. acute toxicology studies; 2. repeated dose toxicity studies.
(§2) The drug was prepared essentially as follows: 539 mg stearoyl-Nle^17-VIP+2.31 ml 10% Sefsol+2.31 ml 40% isopropanol. The experimental animal was the rat (160-300 g body weight).
(§3) In the acute toxicology studies, three routes of administration were chosen: 1. subcutaneous; 2. intravenous; 3. oral.

The nature of data set [3]: Skin penetration and body distribution of 125I-labelled VIP derivatives after transdermal application in Sefsol 318. It is filed as in vivo. The text has this:
These experiments were divided into two groups. In the first group of experiments we performed a time course of the distribution of radioactively labelled stearoyl-Nle^17-VIP (in Sefsol 318™), applied transdermally, in various organs of the body. In the second group of experiments we compared the penetration of four radioactively labelled VIP derivatives with Sefsol 318™ following transdermal application. Two to four animals were used for each data point. The derivatives were labelled with ^125I using the chloramine-T based method (14).
In the first group of experiments, stearoyl-Nle^17-VIP was radioactively labelled with ^125I. Each animal received 2.2 million CPM, in 6µl of the radioactive material+ 26µl ointment (ointment No. 4 in Example 5). Two animals were used for each time point in two independent experiments. To avoid oral absorbance, the animal mouth was sealed. At indicated times following topical application, animals were sacrificed and duplicate tissue samples were removed, weighed and counted in a gamma counter. Tissues measured were: lungs (LU), heart (HE), kidneys (KI), liver (LI) and intestine (IN).
In the second group of experiments compositions of Sefsol 318™ and VIP, St-VIP, Nle^17-VIP and St-Nle^17-VIP were prepared. The experiments were performed as in Figure 2 with the only difference that each animal received a 2.4 million CPM. 2-4 animals were utilized for each variable. Animals were sacrificed 30 minutes after the application of the drug.

The test system of data set [4] is rat. Put plainly: Acute toxicology studies. The class given is in vivo. The following applies: for gross side effects / mortality: dose of 7 mg/rat. How it is done:
as §1, §2, §3

For the compound `CCCCCCCCCCCCCCCCCC(=O)N[C@@H](Cc1c[nH]cn1)C(=O)N[C@@H](CO)C(=O)N[C@@H](CC(=O)O)C(=O)N[C@@H](C)C(=O)N[C@H](C(=O)N[C@@H](Cc1ccccc1)C(=O)N[C@H](C(=O)N[C@@H](CC(=O)O)C(=O)N[C@@H](CC(N)=O)C(=O)N[C@@H](Cc1ccc(O)cc1)C(=O)N[C@H](C(=O)N[C@@H](CCCNC(=N)N)C(=O)N[C@@H](CC(C)C)C(=O)N[C@@H](CCCNC(=N)N)C(=O)N[C@@H](CCCCN)C(=O)N[C@@H](CCC(N)=O)C(=O)N[C@@H](CCSC)C(=O)N[C@@H](C)C(=O)N[C@H](C(=O)N[C@@H](CCCCN)C(=O)N[C@@H](CCCCN)C(=O)N[C@@H](Cc1ccc(O)cc1)C(=O)N[C@@H](CC(C)C)C(=O)N[C@@H](CC(N)=O)C(=O)N[C@@H](CO)C(=O)N[C@H](C(=O)N[C@@H](CC(C)C)C(=O)N[C@@H](CC(N)=O)C(N)=O)[C@@H](C)CC)C(C)C)[C@@H](C)O)[C@@H](C)O)C(C)C` [St-VIP, stearoyl-VIP, reference compound], in the data set with castrated rats, the “Number of E2” value is 24 and the “Number of Cups” value is 12.
As to “stearoyl -norleucine^17-VIP [St-Nle^17-VIP]”, the “stability relative to stearoyl-VIP” value in data set [1] is given as “more stable”. In the data set with rat [2], the mortality result was “no mortality” and the side effects entry was “nor any side effects”. Moreover, the “tissue concentrations compared among VIP, St-VIP, Nle^17-VIP and St-Nle^17-VIP” value in data set [3] (in Sefsol 318, animals sacrificed 30 minutes after application (Fig. 3)) was “highest concentrations”. In addition, in data set [3] (in Sefsol 318, topical, lungs, heart, kidneys, liver, intestine (Fig. 2)), the “peak deliveries (time after administration)” value fell in the range of 15 to 60 min. In data set [3] (in Sefsol 318, topical, tissue samples (Fig. 2)), the “disappearance (time after administration)” value is 2.5 h. In addition, the “Latency to first E2” value in the data set on castrated rats (45 min session (Fig. 1A)) is “about 1 minute”. In addition, the “Latency to first cup” value in the data set with castrated rats (45 min session (Fig. 1B)) was found to be 10 min. For the same compound, in the data set on castrated rats, the “Number of E2” value is recorded as 34 and the “Number of Cups” value was 20. This compound returned an LD50 in the data set on rat [4] (intravenous injection) of 7 mg/rat. In the data set with rat [4] (oral administration), the gross side effects result is given as “no gross side effects” and the mortality result is “no mortality”. Further, in the data set with rat [4] (subcutaneous administration), the gross side effects entry was “no gross side effects” and the mortality result is given as “no mortality”.
